# Data as given in US9409939B2, “Quantification method for remaining liver function and novel liver receptor imaging agent” (INSTITUTE OF NUCLEAR ENERGY RESEARCH ATOMIC ENERGY COUNCIL, …, priority 2009, dated 2016).
# What was measured:
# [1] = system: normal mouse cells (FL83B); assay: MTT cell toxicity test, FL83B; format: cell-based; details: concentration 10^3 times of 0.01 μM, 24 hr, 48 hr
# Protocol: (§1) MTT, i.e. 3-(4,5-cimethyl-thiazol-2-yl)-2,5-diphenyl tetrazolium bromide, can be metabolized by succinate dehydrogenase of cell mitochondria into blue MTT formazan, and thus is widely used to detect cell viability. The experimental method includes: adding 0, 0.001 μM, 0.01 μM, 0.1 μM, 1 μM, and 10 μM hexa-lactoside into 1×10^6 normal rat cells (Clone 9) and normal mouse cells (FL83B), respectively; after culturing for 24 hr, 48 hr, adding MTT; and 4 hr later, dissolving the cells with DMSO. The blue MTT formazan is soluble in the solution. The absorption of the solution at 570 nm is detected. With the absorption at 570 nm without adding hexa-lactoside as 100% of cell viability, the experimental groups with hexa-lactoside added are compared with the normal group without adding hexa-lactoside, to get the cell viability of the experimental groups. FIG. 10 is a comparison of cell viability of hexa-lactoside in normal rat cell (Clone 9), and FIG. 11 is a comparison of cell viability of hexa-lactoside in normal mouse cell (FL83B), in which the concentration used presently is 0.01 μM.
# [2] = system: normal rat cells (Clone 9); assay: MTT cell toxicity test, Clone 9; format: cell-based; details: Clone 9, concentration 10^3 times of 0.01 μM, 24 hr, 48 hr
# Protocol: as §1
# ASGPR = biological target: T1, ASGPR (Mus musculus, UniProt P24721+P34927); assay: Competition with Eu-ASOR for binding to murine hepatocyte (time-resolved fluorescence)
# T1 construct: host or cells: murine hepatocytes (purchased, plated in 24-well plates)
# T1 sequence (P34927 1-284): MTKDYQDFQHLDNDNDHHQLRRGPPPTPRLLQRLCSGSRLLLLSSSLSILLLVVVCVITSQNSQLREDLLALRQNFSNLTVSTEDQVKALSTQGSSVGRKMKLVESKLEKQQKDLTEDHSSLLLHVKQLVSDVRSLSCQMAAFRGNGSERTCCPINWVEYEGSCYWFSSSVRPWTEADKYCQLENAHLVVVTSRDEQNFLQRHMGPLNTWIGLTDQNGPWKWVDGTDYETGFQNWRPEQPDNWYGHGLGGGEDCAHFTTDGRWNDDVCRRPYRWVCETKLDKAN
# T1 sequence (P24721 1-301): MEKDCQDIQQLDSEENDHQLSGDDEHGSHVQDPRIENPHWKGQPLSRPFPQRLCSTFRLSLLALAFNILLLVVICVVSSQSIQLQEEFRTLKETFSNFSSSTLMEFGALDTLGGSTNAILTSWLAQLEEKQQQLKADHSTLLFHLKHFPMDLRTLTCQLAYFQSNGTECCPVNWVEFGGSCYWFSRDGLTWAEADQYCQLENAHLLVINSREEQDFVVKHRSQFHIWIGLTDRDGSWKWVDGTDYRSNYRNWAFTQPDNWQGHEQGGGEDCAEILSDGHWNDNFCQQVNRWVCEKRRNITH
# Protocol: The murine hepatocyte (from Lonza Biotechnology Company, Maryland) is plated in a 24-well plate in advance, and the reaction occurs in each well, into which (i) Eu-ASOR 10 nM (ii) hepatocyte basic medium with 5 mM calcium chloride, and (iii) five different concentrations of saccharide chain peptide of 1 uM-0.8 nM are added. After culturing with shaking for 1 hr, the substance that has not been bound to hepatocyte is removed by washing with the hepatocyte basic medium containing calcium chloride.
# Time-resolved fluorescence spectroscopy is preformed, that is, an enhancement solution (15 uM β-naphthoyl trifluoroacetone, 50 uM tri-n-octyl-phosphine oxide, 0.1% triton X-100 in 0.1M acetic acid, titrated with potassium hydrogen phthalate to pH 3.2) is added. The enhancement solution reacts with Eu^3+ to form a Eu chelate, which can emit a light of 615 nm when being excited at 340 nm. With the logarithm of the concentration of saccharide chain peptide as X axis, the emitted fluorescence value as Y axis, the fluorescence value without adding glycopeptide being set as 100%, the IC50 of each saccharide chain peptide can be calculated accordingly.
smiles,measurement,setting,value
"NCCCCCC(=O)N[C@@H](CC(=O)NCCCC[C@@H](C(=O)NCCCCCCOC1O[C@H](CO)[C@@H](O[C@@H]2O[C@H](CO)[C@H](O)[C@H](O)[C@H]2O)[C@H](O)[C@H]1O)N(CC(=O)NCCCCCCOC1O[C@H](CO)[C@@H](O[C@@H]2O[C@H](CO)[C@H](O)[C@H](O)[C@H]2O)[C@H](O)[C@H]1O)CC(=O)NCCCCCCOC1O[C@H](CO)[C@@H](O[C@@H]2O[C@H](CO)[C@H](O)[C@H](O)[C@H]2O)[C@H](O)[C@H]1O)C(=O)NCCCC[C@@H](C(=O)NCCCCCCOC1O[C@H](CO)[C@@H](O[C@@H]2O[C@H](CO)[C@H](O)[C@H](O)[C@H]2O)[C@H](O)[C@H]1O)N(CC(=O)NCCCCCCOC1O[C@H](CO)[C@@H](O[C@@H]2O[C@H](CO)[C@H](O)[C@H](O)[C@H]2O)[C@H](O)[C@H]1O)CC(=O)NCCCCCCOC1O[C@H](CO)[C@@H](O[C@@H]2O[C@H](CO)[C@H](O)[C@H](O)[C@H]2O)[C@H](O)[C@H]1O (stereo partly shown) [AHA-Asp[DCM-Lys(ahLac)3]2, AHA-Asp[DCM-Lys(ah-Lac)3]2]",cell viability (MTT),[1],100%
same,cell viability (MTT),[2],100%
"CC(=O)N[C@H]1[C@H](OCCCCCCNC(=O)CNC(=O)CN(CC(=O)NCC(=O)NCCCCCCO[C@@H]2O[C@H](CO)[C@H](O)[C@H](O)[C@H]2NC(C)=O)[C@@H](CCCCN)C(=O)NCC(=O)NCCCCCCO[C@@H]2O[C@H](CO)[C@H](O)[C@H](O)[C@H]2NC(C)=O)O[C@H](CO)[C@H](O)[C@@H]1O [DCM-Lys(GahGalNAc)3, DCM-Lys(Gah-GalNAc)3]",binding to ASGPR relative to YEE or YDD,ASGPR; compared with YEE or YDD,10 times
"CC(=O)N[C@H]1[C@H](OCCCCCCNC(=O)CNC(=O)C[C@H](NC(=O)[C@H](CC(=O)NCC(=O)NCCCCCCO[C@@H]2O[C@H](CO)[C@H](O)[C@H](O)[C@H]2NC(C)=O)NC(=O)[C@@H](N)Cc2ccc(O)cc2)C(=O)NCC(=O)NCCCCCCO[C@@H]2O[C@H](CO)[C@H](O)[C@H](O)[C@H]2NC(C)=O)O[C@H](CO)[C@H](O)[C@@H]1O [YDD(GahGalNAc)3, reference compound]",IC50,ASGPR,10 nM
